Experimental data as given in patent US11667649B2, “Heteroaromatic macrocyclic ether chemotherapeutic agents” (Nuvalent, Inc., priority 2020, dated 2023).

Test system: TPM3-NTRK1-wt IC50 / primary target (e.g. CD74-ROS1-wt) IC50, Ba/F3 cells
Assay: Cell assay TRKA selectivity (TRKA potency divided by primary target potency)
Format: cell-based
Details: for TPM3-NTRK1-wt/CD74-ROS1-G2032R: TRKA selectivity ratio: TPM3-NTRK1-wt IC50 / CD74-ROS1-G2032R IC50, Ba/F3 cells; for TPM3-NTRK1-wt/CD74-ROS1-wt: TRKA selectivity ratio: TPM3-NTRK1-wt IC50 / CD74-ROS1-wt IC50, Ba/F3 cells; for TPM3-NTRK1-wt/EML4-ALK-L1196M-G1202R: TRKA selectivity ratio: TPM3-NTRK1-wt IC50 / EML4-ALK-L1196M-G1202R IC50, Ba/F3 cells; for TPM3-NTRK1-wt/EML4-ALK-wt: TRKA selectivity ratio: TPM3-NTRK1-wt IC50 / EML4-ALK-wt IC50, Ba/F3 cells
Outline: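 Ratio of TRKA to primary-target cellular IC50 (e.g. TPM3-NTRK1-wt/CD74-ROS1-wt), grouped into bins A >30, B >10, C ≥1, D <1. Each IC50 came from engineered Ba/F3 fusion lines grown without IL-3, dosed for 72 h and read as CellTiter-Glo luminescence, with a four-parameter logistic fit.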

| Structure (SMILES) | TPM3-NTRK1-wt/CD74-ROS1-G2032R | TPM3-NTRK1-wt/CD74-ROS1-wt | TPM3-NTRK1-wt/EML4-ALK-L1196M-G1202R | TPM3-NTRK1-wt/EML4-ALK-wt |
| --- | --- | --- | --- | --- |
| CCn1ncc2c1-c1cnc(N)c(c1)O[C@H](C)c1cc(F)ccc1-c1nn(C)c(OC)c1C2 [Example 157, (19R)-3-ethyl-16-fluoro-9-methoxy-10,19-dimethyl-20-oxa-3,4,10,11,23-pentaazapentacyclo[19.3.1.0^2,^6.0^8,^12.0^13,^18]pentacosa-1(24),2(6),4,8,11,13,15,17,21(25),22-decaen-22-amine] | A (bin A for very high selectivity, ratio>30-fold) | A (bin A for very high selectivity, ratio>30-fold) | C (bin C for moderate selectivity, ratio≥1) | A (bin A for very high selectivity, ratio>30-fold) |
| CC1Oc2cc(cnc2N)-c2c(cnn2C(F)F)Cn2ccnc2-c2ccc(F)cc21 (centres unmarked) [Example 44, 3-(difluoromethyl)-16-fluoro-19-methyl-20-oxa-3,4,8,11,23-pentaazapentacyclo[19.3.1.0^2,^6.0^8,^12.0^13,^18]pentacosa-1(24),2(6),4,9,11,13,15,17,21(25),22-decaen-22-amine] | A (bin A for very high selectivity, ratio>30-fold) | A (bin A for very high selectivity, ratio>30-fold) | C (bin C for moderate selectivity, ratio≥1) | A (bin A for very high selectivity, ratio>30-fold) |
| CCc1noc2c1-c1cnc(N)c(c1)O[C@H](C)c1cc(F)ccc1-c1nncn1C2 [Example 120, (19R)-3-ethyl-16-fluoro-19-methyl-5,20-dioxa-4,8,10,11,23-pentaazapentacyclo[19.3.1.0^2,^6.0^8,^12.0^13,^18]pentacosa-1(24),2(6),3,9,11,13,15,17,21(25),22-decaen-22-amine] | C (bin C for moderate selectivity, ratio≥1) | A (bin A for very high selectivity, ratio>30-fold) | D (bin D for low selectivity, ratio<1) | C (bin C for moderate selectivity, ratio≥1) |
| C[C@H]1Oc2cc(cnc2N)-c2c(C#N)nn(C)c2Cc2csnc2-c2ccc(F)cc21 [Example 143, (19R)-22-amino-16-fluoro-5,19-dimethyl-20-oxa-10-thia-4,5,11,23-tetraazapentacyclo[19.3.1.0^2,^6.0^8,^12.0^13,^18]pentacosa-1(24),2(6),3,8,11,13,15,17,21(25),22-decaene-3-carbonitrile] | A (bin A for very high selectivity, ratio>30-fold) | A (bin A for very high selectivity, ratio>30-fold) | B (bin B for high selectivity, ratio>10-fold) | A (bin A for very high selectivity, ratio>30-fold) |
| C[C@H]1Oc2cc(cnc2N)-c2c(C#N)cnn2Cc2cccnc2-c2ccc(F)cc21 [Example 14, (20R)-23-amino-17-fluoro-20-methyl-21-oxa-5,6,12,24-tetraazapentacyclo[20.3.1.0^2,^6.0^8,^13.0^14,^19]hexacosa-1(25),2,4,8(13),9,11,14,16,18,22(26),23-undecaene-3-carbonitrile] | B (bin B for high selectivity, ratio>10-fold) | A (bin A for very high selectivity, ratio>30-fold) | C (bin C for moderate selectivity, ratio≥1) | A (bin A for very high selectivity, ratio>30-fold) |
| COc1cc2n(n1)-c1ccc(F)cc1[C@@H](C)Oc1cc(cnc1N)-c1c(c(C)nn1CC1CC1)C2 [Example 124, (19R)-3-(cyclopropylmethyl)-16-fluoro-10-methoxy-5,19-dimethyl-20-oxa-3,4,11,12,23-pentaazapentacyclo[19.3.1.0^2,^6.0^8,^12.0^13,^18]pentacosa-1(24),2(6),4,8,10,13,15,17,21(25),22-decaen-22-amine] | A (bin A for very high selectivity, ratio>30-fold) | A (bin A for very high selectivity, ratio>30-fold) | A (bin A for very high selectivity, ratio>30-fold) | A (bin A for very high selectivity, ratio>30-fold) |
| Cc1nn(CC2CC2)c2c1Cc1cc(C(F)F)nn1-c1ccc(F)cc1[C@@H](C)Oc1cc-2cnc1N [Example 125, (19R)-3-(cyclopropylmethyl)-10-(difluoromethyl)-16-fluoro-5,19-dimethyl-20-oxa-3,4,11,12,23-pentaazapentacyclo[19.3.1.0^2,^6.0^8,^12.0^13,^18]pentacosa-1(24),2(6),4,8,10,13,15,17,21(25),22-decaen-22-amine] | A (bin A for very high selectivity, ratio>30-fold) | A (bin A for very high selectivity, ratio>30-fold) | A (bin A for very high selectivity, ratio>30-fold) | A (bin A for very high selectivity, ratio>30-fold) |
| C[C@H]1Oc2cc(cnc2N)-c2c(C#N)nn(C)c2Cc2cn(C)nc2-c2ccc(F)cc21 [Example 21, (19R)-22-amino-16-fluoro-5,10,19-trimethyl-20-oxa-4,5,10,11,23-pentaazapentacyclo[19.3.1.0^2,^6.0^8,^12.0^13,^18]pentacosa-1(24),2(6),3,8,11,13,15,17,21(25),22-decaene-3-carbonitrile] | A (bin A for very high selectivity, ratio>30-fold) | A (bin A for very high selectivity, ratio>30-fold) | B (bin B for high selectivity, ratio>10-fold) | A (bin A for very high selectivity, ratio>30-fold) |
| CCn1nc(C(F)(F)F)c2c1-c1cnc(N)c(c1)O[C@H](C)c1cc(F)ccc1-c1nn(C)cc1C2 [Example 96, (19R)-3-ethyl-16-fluoro-10,19-dimethyl-5-(trifluoromethyl)-20-oxa-3,4,10,11,23-pentaazapentacyclo[19.3.1.0^2,^6.0^8,^12.0^13,^18]pentacosa-1(24),2(6),4,8,11,13,15,17,21(25),22-decaen-22-amine] | A (bin A for very high selectivity, ratio>30-fold) | A (bin A for very high selectivity, ratio>30-fold) | C (bin C for moderate selectivity, ratio≥1) | A (bin A for very high selectivity, ratio>30-fold) |
| CCn1nc(C)c2c1-c1cnc(N)c(c1)O[C@H](C)c1cc(F)ccc1-c1nn(C)cc1C2 [Example 81, (19R)-3-ethyl-16-fluoro-5,10,19-trimethyl-20-oxa-3,4,10,11,23-pentaazapentacyclo[19.3.1.0^2,^6.0^8,^12.0^13,^18]pentacosa-1(24),2(6),4,8,11,13,15,17,21(25),22-decaen-22-amine] | A (bin A for very high selectivity, ratio>30-fold) | A (bin A for very high selectivity, ratio>30-fold) | B (bin B for high selectivity, ratio>10-fold) | A (bin A for very high selectivity, ratio>30-fold) |
| CCn1ncc2c1-c1cnc(N)c(c1)O[C@H](C)c1cc(F)ccc1-n1nccc1C2 [Example 33, (19R)-3-ethyl-16-fluoro-19-methyl-20-oxa-3,4,11,12,23-pentaazapentacyclo[19.3.1.0^2,^6.0^8,^12.0^13,^18]pentacosa-1(24),2(6),4,8,10,13,15,17,21(25),22-decaen-22-amine] | A (bin A for very high selectivity, ratio>30-fold) | A (bin A for very high selectivity, ratio>30-fold) | B (bin B for high selectivity, ratio>10-fold) | A (bin A for very high selectivity, ratio>30-fold) |
| CCc1ncn2c1-c1cnc(N)c(c1)O[C@H](C)c1cc(F)ccc1-c1nn(C)cc1C2 [Example 50, (19R)-3-ethyl-16-fluoro-10,19-dimethyl-20-oxa-4,6,10,11,23-pentaazapentacyclo[19.3.1.0^2,^6.0^8,^12.0^13,^18]pentacosa-1(24),2,4,8,11,13,15,17,21(25),22-decaen-22-amine] | A (bin A for very high selectivity, ratio>30-fold) | A (bin A for very high selectivity, ratio>30-fold) | B (bin B for high selectivity, ratio>10-fold) | A (bin A for very high selectivity, ratio>30-fold) |
| Cn1nc(C#N)c2c1Cc1cc(Cl)nn1-c1ccc(F)cc1COc1cc-2cnc1N [Example 113, 22-amino-10-chloro-16-fluoro-5-methyl-20-oxa-4,5,11,12,23-pentaazapentacyclo[19.3.1.0^2,^6.0^8,^12.0^13,^18]pentacosa-1(24),2(6),3,8,10,13,15,17,21(25),22-decaene-3-carbonitrile] | A (bin A for very high selectivity, ratio>30-fold) | A (bin A for very high selectivity, ratio>30-fold) | C (bin C for moderate selectivity, ratio≥1) | A (bin A for very high selectivity, ratio>30-fold) |
| C[C@H]1Oc2cc(cnc2N)-c2c(cnn2CC2CC2)Cc2cn(C(F)F)nc2-c2ccc(F)cc21 [Example 160, (19R)-3-(cyclopropylmethyl)-10-(difluoromethyl)-16-fluoro-19-methyl-20-oxa-3,4,10,11,23-pentaazapentacyclo[19.3.1.0^2,^6.0^8,^12.0^13,^18]pentacosa-1(24),2(6),4,8,11,13,15,17,21(25),22-decaen-22-amine] | A (bin A for very high selectivity, ratio>30-fold) | A (bin A for very high selectivity, ratio>30-fold) | A (bin A for very high selectivity, ratio>30-fold) | A (bin A for very high selectivity, ratio>30-fold) |
